According to paper PMC6669961, “Design and Optimization of Thioglycosyl–naphthalimides as Efficient Inhibitors Against Human O-GlcNAcase” (Frontiers in Chemistry, 2019):

How the values were obtained:
[1] = target: T1, human β-N-acetylhexosaminidase B (HsHexB) (Homo sapiens, UniProt P07686); experiment: Enzyme inhibitory activity test against HsHexB (4-MU-GlcNAc substrate, end-point fluorescence; Dixon plots for Ki); format: biochemical; conditions: pH 4.5; for inhibition at 100 µM: 100 μM inhibitor, 40 μM 4-MU-GlcNAc, 30°C, 30 min, read-out: Inhibition rate at 100 μM (%) HsHexB; for Ki: Dixon plots, 4-MU-GlcNAc 40, 20, 10 μM
T1 construct: made in house; host or cells: Pichia pastoris
T1 sequence (P07686 122-556): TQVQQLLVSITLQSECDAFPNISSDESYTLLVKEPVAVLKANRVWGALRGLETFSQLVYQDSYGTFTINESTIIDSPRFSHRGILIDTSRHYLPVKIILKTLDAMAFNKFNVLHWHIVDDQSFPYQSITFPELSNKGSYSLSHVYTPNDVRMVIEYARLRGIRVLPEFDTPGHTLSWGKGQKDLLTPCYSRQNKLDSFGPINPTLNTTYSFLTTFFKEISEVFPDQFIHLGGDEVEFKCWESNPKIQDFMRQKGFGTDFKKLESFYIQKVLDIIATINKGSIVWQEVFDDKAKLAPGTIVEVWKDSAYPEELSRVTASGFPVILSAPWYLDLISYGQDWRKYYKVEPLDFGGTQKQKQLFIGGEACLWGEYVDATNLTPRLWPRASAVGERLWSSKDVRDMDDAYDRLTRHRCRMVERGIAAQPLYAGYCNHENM
Method: (§1) Human O-GlcNAcase (hOGA) was expressed in Escherichia coli BL21(DE3) and purified according to previous methods (Kong et al., [2016]). Human β-N-acetylhexosaminidase B (HsHexB) was overexpressed in Pichia pastoris and then purified as described previously (Shen et al., [2018a]).
(§2) All target compounds were evaluated for their inhibitory activities against hOGA and HsHexB in end-point experiments. 4-Methylumbelliferyl N-acetyl-β-D-glucosaminide (4-MU-GlcNAc) was used as substrate. In a final assay volume of 100 μL, inhibitor and substrate (40 μM) were mixed with Britton-Robinson buffer (hOGA, pH 6.5; HsHexB, pH 4.5) and enzyme; then, the assay components were incubated at 30°C for 30 min. Subsequently, the enzymatic reaction was terminated by the addition of 100 μL 0.5 M Na2CO3 solution. The fluorescence of the liberated 4-methylumbelliferone (Mu) was quantified at an excitation of 366 nm and emission of 445 nm on a Varioskan Flash microplate reader (Thermo Fisher Scientific, USA). To determine the inhibition constant (Ki), Dixon plots were performed by changing the concentration of the 4-MU-GlcNAc (40, 20, and 10 μM).

human O-GlcNAcase (hOGA) = target: T2, human O-GlcNAcase (hOGA) (Homo sapiens, UniProt O60502); experiment: Enzyme inhibitory activity test against hOGA (4-MU-GlcNAc substrate, end-point fluorescence; Dixon plots for Ki); format: biochemical; conditions: for inhibition at 100 µM: 100 μM inhibitor, 40 μM 4-MU-GlcNAc, 30°C, 30 min, read-out: Inhibition rate at 100 μM (%) hOGA; for inhibition at 100 µM / Ki: pH 6.5; for Ki: Dixon plots, 4-MU-GlcNAc 40, 20, 10 μM; for inhibitory mechanism toward hOGA: kinetic studies via Dixon plots; for decrease in inhibitory activity against hOGA: NHC2H5 (17a or 17d) compared to NHCH3 (16h or 17c)
T2 construct: made in house; host or cells: Escherichia coli BL21(DE3)
T2 sequence (O60502 1-916): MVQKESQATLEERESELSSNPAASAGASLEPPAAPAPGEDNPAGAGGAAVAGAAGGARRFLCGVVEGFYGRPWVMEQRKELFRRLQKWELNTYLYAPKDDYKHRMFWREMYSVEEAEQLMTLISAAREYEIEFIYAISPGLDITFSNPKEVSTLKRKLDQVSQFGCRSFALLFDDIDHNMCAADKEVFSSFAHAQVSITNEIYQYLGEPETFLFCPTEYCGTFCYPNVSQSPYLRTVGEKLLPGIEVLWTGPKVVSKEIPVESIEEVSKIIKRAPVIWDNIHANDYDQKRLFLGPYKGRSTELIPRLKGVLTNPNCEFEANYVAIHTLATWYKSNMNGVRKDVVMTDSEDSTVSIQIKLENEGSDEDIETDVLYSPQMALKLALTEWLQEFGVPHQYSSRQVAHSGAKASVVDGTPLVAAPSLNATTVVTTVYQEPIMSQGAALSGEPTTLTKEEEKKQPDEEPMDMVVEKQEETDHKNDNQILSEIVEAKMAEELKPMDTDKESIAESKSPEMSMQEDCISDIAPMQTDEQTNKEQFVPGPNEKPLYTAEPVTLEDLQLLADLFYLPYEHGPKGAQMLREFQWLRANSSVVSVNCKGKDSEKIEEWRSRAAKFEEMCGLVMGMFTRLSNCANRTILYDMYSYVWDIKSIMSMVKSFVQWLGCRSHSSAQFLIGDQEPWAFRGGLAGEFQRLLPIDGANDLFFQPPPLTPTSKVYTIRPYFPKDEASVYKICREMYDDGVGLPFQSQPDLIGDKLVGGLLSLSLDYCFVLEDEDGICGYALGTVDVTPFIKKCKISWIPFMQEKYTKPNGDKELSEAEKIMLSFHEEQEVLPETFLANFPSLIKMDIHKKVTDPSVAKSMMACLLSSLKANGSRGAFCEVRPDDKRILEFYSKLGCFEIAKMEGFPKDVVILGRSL
Method: as §1, §2

HsHex = conditions: NGT; ref Knapp et al., 1996; read-out: Ki against HsHex; cited from earlier work

SMILES | inhibition at 100 µM [1] [%] | Ki [1] [µM] | inhibition at 100 µM (human O-GlcNAcase (hOGA)) [%] | Ki (human O-GlcNAcase (hOGA)) [µM] | increase in potency against hOGA (human O-GlcNAcase (hOGA); compared to lead compound 2 (Ki)) [fold] | inhibitory mechanism toward hOGA (human O-GlcNAcase (hOGA)) | decrease in inhibitory potency against hOGA (human O-GlcNAcase (hOGA); 10d compared to 10a (Ki)) [fold] | potency against hOGA reduced (human O-GlcNAcase (hOGA); 16h (NHCH3) compared to 16d (CH2CH3)) | decrease in inhibitory activity against hOGA (human O-GlcNAcase (hOGA)) [fold] | Ki (HsHex) [µM]
CC(=O)N[C@@H]1[C@@H](O)[C@H](O)[C@@H](CO)O[C@H]1SCC(=O)NCCCN1C(=O)c2cccc3c(Br)ccc(c23)C1=O [Compound 10a] | 36.5 ± 0.8 | > 100 | 98.7 ± 0.3 | 0.61 ± 0.02 | ~6 | competitive inhibitors |  |  |  | 
COc1ccc2c3c(cccc13)C(=O)N(CCCNC(=O)CS[C@@H]1O[C@H](CO)[C@@H](O)[C@H](O)[C@H]1NC(C)=O)C2=O [Compound 10b] | 49.2 ± 1.4 | > 100 | 90.6 ± 0.5 | 4.43 ± 0.21 |  |  |  |  |  | 
CC(=O)N[C@@H]1[C@@H](O)[C@H](O)[C@@H](CO)O[C@H]1SCC(=O)NCCCN1C(=O)c2cccc3c(N(C)C)ccc(c23)C1=O [Compound 10c] | 36.9 ± 0.2 | > 100 | 84.4 ± 1.7 | 9.72 ± 0.49 |  |  |  |  |  | 
CC(=O)N[C@@H]1[C@@H](O)[C@H](O)[C@@H](CO)O[C@H]1SCC(=O)NCCCN1C(=O)c2cccc3c(N4CCCCC4)ccc(c23)C1=O [Compound 10d] | 32.8 ± 2.7 | > 100 | 93.1 ± 0.2 | 1.42 ± 0.02 |  | competitive inhibitors | 2.3 |  |  | 
O=C(CS[C@@H]1O[C@H](CO)[C@@H](O)[C@H](O)[C@H]1NC(=O)c1ccccc1)NCCCN1C(=O)c2cccc3c(N4CCCCC4)ccc(c23)C1=O [Compound 16a] | 12.2 ± 0.2 | > 100 | 22 ± 0.5 | > 100 |  |  |  |  |  | 
O=C(CS[C@@H]1O[C@H](CO)[C@@H](O)[C@H](O)[C@H]1NC(=O)c1ccc(F)cc1)NCCCN1C(=O)c2cccc3c(N4CCCCC4)ccc(c23)C1=O [Compound 16b] | 15.8 ± 0.4 | > 100 | 50.9 ± 0.8 | > 100 |  |  |  |  |  | 
O=C(CS[C@@H]1O[C@H](CO)[C@@H](O)[C@H](O)[C@H]1NC(=O)OCc1ccccc1)NCCCN1C(=O)c2cccc3c(N4CCCCC4)ccc(c23)C1=O [Compound 16c] | 2 ± 1.1 | > 100 | 9.7 ± 0.7 | > 100 |  |  |  |  |  | 
CCC(=O)N[C@@H]1[C@@H](O)[C@H](O)[C@@H](CO)O[C@H]1SCC(=O)NCCCN1C(=O)c2cccc3c(N4CCCCC4)ccc(c23)C1=O [Compound 16d] | 28.7 ± 2 | > 100 | 88 ± 1.5 | 1.69 ± 0.05 |  |  |  |  |  | 
CCCC(=O)N[C@@H]1[C@@H](O)[C@H](O)[C@@H](CO)O[C@H]1SCC(=O)NCCCN1C(=O)c2cccc3c(N4CCCCC4)ccc(c23)C1=O [Compound 16e] | 24.6 ± 1.5 | > 100 | 78.9 ± 1.9 | 12.8 ± 0.27 |  |  |  |  |  | 
CC(C)C(=O)N[C@@H]1[C@@H](O)[C@H](O)[C@@H](CO)O[C@H]1SCC(=O)NCCCN1C(=O)c2cccc3c(N4CCCCC4)ccc(c23)C1=O [Compound 16f] | 21.4 ± 0.5 | > 100 | 72.2 ± 0.3 | 23.6 ± 0.43 |  |  |  |  |  | 
O=C(CS[C@@H]1O[C@H](CO)[C@@H](O)[C@H](O)[C@H]1NC(=O)C(F)(F)F)NCCCN1C(=O)c2cccc3c(N4CCCCC4)ccc(c23)C1=O [Compound 16g] | 6.4 ± 0.7 | > 100 | 82.7 ± 1 | 6.37 ± 0.09 |  |  |  |  |  | 
CNC(=O)N[C@@H]1[C@@H](O)[C@H](O)[C@@H](CO)O[C@H]1SCC(=O)NCCCN1C(=O)c2cccc3c(N4CCCCC4)ccc(c23)C1=O [Compound 16h] | 25.2 ± 0.3 | > 100 | 85.5 ± 1.5 | 6.6 ± 0.22 |  |  |  | about 4 fold |  | 
O=C(CS[C@@H]1O[C@H](CO)[C@@H](O)[C@H](O)[C@H]1NC(=O)c1ccccc1)NCCCN1C(=O)c2cccc3c(Br)ccc(c23)C1=O [Compound 16j] | 49.1 ± 1.4 | > 100 | 41.1 ± 0.6 | > 100 |  |  |  |  |  | 
O=C(CS[C@@H]1O[C@H](CO)[C@@H](O)[C@H](O)[C@H]1NC(=O)c1ccc(F)cc1)NCCCN1C(=O)c2cccc3c(Br)ccc(c23)C1=O [Compound 16k] | 48.5 ± 1.7 | > 100 | 48 ± 0.9 | > 100 |  |  |  |  |  | 
CCC(=O)N[C@@H]1[C@@H](O)[C@H](O)[C@@H](CO)O[C@H]1SCC(=O)NCCCN1C(=O)c2cccc3c(Br)ccc(c23)C1=O [Compound 16l] | 41.8 ± 1 | > 100 | 97.7 ± 2.2 | 0.72 ± 0.01 |  |  |  |  |  | 
CCCC(=O)N[C@@H]1[C@@H](O)[C@H](O)[C@@H](CO)O[C@H]1SCC(=O)NCCCN1C(=O)c2cccc3c(Br)ccc(c23)C1=O [Compound 16m] | 39.8 ± 2.3 | > 100 | 97.1 ± 1.3 | 4.36 ± 0.21 |  |  |  |  |  | 
CC(C)C(=O)N[C@@H]1[C@@H](O)[C@H](O)[C@@H](CO)O[C@H]1SCC(=O)NCCCN1C(=O)c2cccc3c(Br)ccc(c23)C1=O [Compound 16n] | 37 ± 0.4 | > 100 | 87.8 ± 0.4 | 6.92 ± 0.1 |  |  |  |  |  | 
O=C(CS[C@@H]1O[C@H](CO)[C@@H](O)[C@H](O)[C@H]1NC(=O)C(F)(F)F)NCCCN1C(=O)c2cccc3c(Br)ccc(c23)C1=O [Compound 16o] | 37.7 ± 0.9 | > 100 | 90.9 ± 0.2 | 4.62 ± 0.18 |  |  |  |  |  | 
CCNC(=O)N[C@@H]1[C@@H](O)[C@H](O)[C@@H](CO)O[C@H]1SCC(=O)NCCCN1C(=O)c2cccc3c(N4CCCCC4)ccc(c23)C1=O [Compound 17a] | 25.9 ± 0.3 | > 100 | 68.6 ± 0.8 | 12 ± 0.3 |  |  |  |  | 2 to 3 | 
CCCNC(=O)N[C@@H]1[C@@H](O)[C@H](O)[C@@H](CO)O[C@H]1SCC(=O)NCCCN1C(=O)c2cccc3c(N4CCCCC4)ccc(c23)C1=O [Compound 17b] | 22.7 ± 0.2 | > 100 | 66.3 ± 0.6 | 13.83 ± 0.02 |  |  |  |  |  | 
CNC(=O)N[C@@H]1[C@@H](O)[C@H](O)[C@@H](CO)O[C@H]1SCC(=O)NCCCN1C(=O)c2cccc3c(Br)ccc(c23)C1=O [Compound 17c] | 40.7 ± 0.7 | > 100 | 96.7 ± 1.6 | 2.17 ± 0.13 |  |  |  |  |  | 
CCNC(=O)N[C@@H]1[C@@H](O)[C@H](O)[C@@H](CO)O[C@H]1SCC(=O)NCCCN1C(=O)c2cccc3c(Br)ccc(c23)C1=O [Compound 17d] | 26.3 ± 1.1 | > 100 | 83.5 ± 0.9 | 7.11 ± 0.01 |  |  |  |  | 2 to 3 | 
CC1=N[C@@H]2[C@@H](O)[C@H](O)[C@@H](CO)O[C@@H]2S1 [NGT, NAG-thiazoline] |  |  |  |  |  |  |  |  |  | 0.07
